The results in this text go back to patent publication US20230086702A1, “SUBSTITUTED 2-AMINO-PYRAZOLYL-[1,2,4]TRIAZOLO[1,5A]PYRIDINE DERIVATIVES AND USE THEREOF” (The Johns Hopkins University, priority 2019, published 2023).

pIC50: −log10 of the molar value.

One assay deals with T1, DLK (Homo sapiens, UniProt Q12852).
T1 construct: 10 nM DLK, catalytic domain, Carna Biosiences; purchased Carna Biosciences ('Carna Biosiences' [sic])
T1 sequence (Q12852 125-366 limits assumed): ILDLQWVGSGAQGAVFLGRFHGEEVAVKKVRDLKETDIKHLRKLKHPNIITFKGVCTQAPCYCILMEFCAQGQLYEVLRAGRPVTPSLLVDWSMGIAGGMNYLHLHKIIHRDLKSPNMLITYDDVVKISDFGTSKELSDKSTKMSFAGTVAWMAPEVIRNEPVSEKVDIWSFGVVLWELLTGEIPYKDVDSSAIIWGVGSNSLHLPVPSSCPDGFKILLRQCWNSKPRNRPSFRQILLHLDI
In words: DLK biochemical assay (TR-FRET, MKK7 phosphorylation). The method, boiled down:
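TR-FRET read-out (665/Eu ratio) of MKK7 T275/S277 phosphorylation, with inhibition lowering the signal. Final conditions: 10 nM DLK catalytic domain, 15 nM MKK7, 60 μM ATP, 90 min at RT. Detection incubation 16 h at 37° C in 1536-well or 4° C in 384-well format.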
Background: Time-resolved FRET reads energy transfer from a long-lived donor to a nearby acceptor.

In another assay the target is T2, LZK (Homo sapiens, UniProt O43283).
T2 construct: 10 nM LZK, catalytic domain, Carna Biosiences in assay buffer; purchased Carna Biosciences ('Carna Biosiences' [sic])
T2 sequence (O43283 168-409 limits assumed): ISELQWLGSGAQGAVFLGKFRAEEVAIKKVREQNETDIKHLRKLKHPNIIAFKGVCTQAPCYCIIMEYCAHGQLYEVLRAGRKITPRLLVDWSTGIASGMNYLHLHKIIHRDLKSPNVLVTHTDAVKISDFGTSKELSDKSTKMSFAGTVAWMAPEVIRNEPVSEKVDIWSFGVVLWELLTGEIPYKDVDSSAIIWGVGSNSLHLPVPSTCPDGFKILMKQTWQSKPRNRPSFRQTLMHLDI
The assay can be described thus: LZK biochemical assay (TR-FRET, MKK7 phosphorylation). The method, boiled down: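 Read-out is HTRF: Eu-labelled anti-phospho-MKK7 (T275/S277) and XL665 anti-His, incubated 16 h at 32 °C, with a drop in signal marking inhibition. Reaction beforehand: 10 nM LZK kinase domain, 15 nM His-MKK7, 15 µM ATP (final) for 90 min at room temperature, pH 7.5.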

Usually pIC50 stands for −log10 of the IC50, conventionally taken in molar units. Higher therefore signals a low IC50. Take `CC(C)(O)c1cccc(-c2cc(-c3cnn(C(c4ccc(C(F)(F)F)nc4)C4CCOCC4)c3)cn3nc(N)nc23)c1` (single isomer, unassigned) [II-11, 2-{3-[2-Amino-6-(1-{tetrahydro-2H-pyran-4-yl[6-(trifluoromethyl)pyridin-3-yl]methyl}-1H-pyrazol-4-yl)[1,2,4]triazolo[1,5-a]pyridin-8-yl]phenyl}propan-2-ol]: the negative-log IC50 (pIC50) was 8.85 against DLK and 8.52 against LZK.
The matching figures for `CC(C)(O)c1cccc(-c2cc(-c3cnn(C(c4ccc(C(F)(F)F)nc4)C4CCOCC4)c3)cn3nc(N)nc23)c1` (single isomer, unassigned) [II-12, 2-{3-[2-Amino-6-(1-{tetrahydro-2H-pyran-4-yl[6-(trifluoromethyl)pyridin-3-yl]methyl}-1H-pyrazol-4-yl)[1,2,4]triazolo[1,5-a]pyridin-8-yl]phenyl}propan-2-ol]: 9.22 and 8.92.
The like results for `CS(=O)(=O)c1cccc(-c2cc(-c3cnn(C(c4ccc(C(F)(F)F)nc4)C4CCOCC4)c3)cn3nc(N)nc23)c1` (single isomer, unassigned) [II-14, 8-[3-(Methylsulfonyl)phenyl]-6-(1-{tetrahydro-2H-pyran-4-yl[6-(trifluoromethyl)pyridin-3-yl]methyl}-1H-pyrazol-4-yl)[1,2,4]triazolo[1,5-a]pyridin-2-amine] were, in that order, 9.22 and 8.89.
The like results for `CS(=O)(=O)c1cccc(-c2cc(-c3cnn(C(c4ccc(C(F)(F)F)nc4)C4CCOCC4)c3)cn3nc(N)nc23)c1` (single isomer, unassigned) [II-15, 8-[3-(Methylsulfonyl)phenyl]-6-(1-{tetrahydro-2H-pyran-4-yl[6-(trifluoromethyl)pyridin-3-yl]methyl}-1H-pyrazol-4-yl)[1,2,4]triazolo[1,5-a]pyridin-2-amine] were, in that order, 9.05 and 8.57.
In the case of `CCS(=O)(=O)c1cccc(-c2cc(-c3cnn(C(c4ccc(C(F)(F)F)nc4)C4CCOCC4)c3)cn3nc(N)nc23)c1` (single isomer, unassigned) [II-17, 8-[3-(Ethylsulfonyl)phenyl]-6-(1-{tetrahydro-2H-pyran-4-yl[6-(trifluoromethyl)pyridin-3-yl]methyl}-1H-pyrazol-4-yl)[1,2,4]triazolo[1,5-a]pyridin-2-amine], the pIC50 against DLK is 8.68; on LZK it was 7.96.
The like results for `CCS(=O)(=O)c1cccc(-c2cc(-c3cnn(C(c4ccc(C(F)(F)F)nc4)C4CCOCC4)c3)cn3nc(N)nc23)c1` (single isomer, unassigned) [II-18, 8-[3-(Ethylsulfonyl)phenyl]-6-(1-{tetrahydro-2H-pyran-4-yl[6-(trifluoromethyl)pyridin-3-yl]methyl}-1H-pyrazol-4-yl)[1,2,4]triazolo[1,5-a]pyridin-2-amine] were, in that order, 9.52 and 8.82.
The like results for `Nc1nc2c(-c3cccc(S(=O)(=O)C(F)(F)F)c3)cc(-c3cnn(C(c4ccc(C(F)(F)F)nc4)C4CCOCC4)c3)cn2n1` (single isomer, unassigned) [II-20, 6-(1-{Tetrahydro-2H-pyran-4-yl[6-(trifluoromethyl)pyridin-3-yl]methyl}-1H-pyrazol-4-yl)-8-{3-[(trifluoromethyl)sulfonyl]phenyl}[1,2,4]triazolo[1,5-a]pyridin-2-amine] were, in that order, 7.15 and 6.85.
The matching figures for `Nc1nc2c(-c3cccc(S(=O)(=O)C(F)(F)F)c3)cc(-c3cnn(C(c4ccc(C(F)(F)F)nc4)C4CCOCC4)c3)cn2n1` (single isomer, unassigned) [II-21, 6-(1-{Tetrahydro-2H-pyran-4-yl[6-(trifluoromethyl)pyridin-3-yl]methyl}-1H-pyrazol-4-yl)-8-{3-[(trifluoromethyl)sulfonyl]phenyl}[1,2,4]triazolo[1,5-a]pyridin-2-amine]: 8.12 and 7.85.
`CN(C)c1cccc(-c2cc(-c3cnn(C(c4ccc(C(F)(F)F)nc4)C4CCOCC4)c3)cn3nc(N)nc23)c1` (single isomer, unassigned) [II-23, 8-[3-(Dimethylamino)phenyl]-6-(1-{tetrahydro-2H-pyran-4-yl[6-(trifluoromethyl)pyridin-3-yl]methyl}-1H-pyrazol-4-yl)[1,2,4]triazolo[1,5-a]pyridin-2-amine]: the pIC50 at DLK was 8.35; on LZK it was 8.04.
The like results for `CN(C)c1cccc(-c2cc(-c3cnn(C(c4ccc(C(F)(F)F)nc4)C4CCOCC4)c3)cn3nc(N)nc23)c1` (single isomer, unassigned) [II-24, 8-[3-(Dimethylamino)phenyl]-6-(1-{tetrahydro-2H-pyran-4-yl[6-(trifluoromethyl)pyridin-3-yl]methyl}-1H-pyrazol-4-yl)[1,2,4]triazolo[1,5-a]pyridin-2-amine] were, in that order, 9.30 and 8.64.
Turning to `CCC(c1ccc(C(F)(F)F)nc1)n1cc(-c2cc(-c3ccnc(OC(F)F)c3)c3nc(N)nn3c2)cn1` (single isomer, unassigned) [II-26, 8-[2-(Difluoromethoxy)pyridin-4-yl]-6-(1-{1-[6-(trifluoromethyl)pyridin-3-yl]propyl}-1H-pyrazol-4-yl)[1,2,4]triazolo[1,5-a]pyridin-2-amine], the figures for the pIC50 against DLK and against LZK were 6.68 and 6.82, respectively.
The like results for `CCC(c1ccc(C(F)(F)F)nc1)n1cc(-c2cc(-c3ccnc(OC(F)F)c3)c3nc(N)nn3c2)cn1` (single isomer, unassigned) [II-27, 8-[2-(Difluoromethoxy)pyridin-4-yl]-6-(1-{1-[6-(trifluoromethyl)pyridin-3-yl]propyl}-1H-pyrazol-4-yl)[1,2,4]triazolo[1,5-a]pyridin-2-amine] were, in that order, 7.52 and 7.26.
`CC(C)C(c1ccc(C(F)(F)F)nc1)n1cc(-c2cc(-c3ccnc(C(F)(F)F)c3)n3nc(N)nc3c2)cn1` (single isomer, unassigned) [II-29, 7-(1-{2-Methyl-1-[6-(trifluoromethyl)pyridin-3-yl]propyl}-1H-pyrazol-4-yl)-5-[2-(trifluoromethyl)pyridin-4-yl][1,2,4]triazolo[1,5-a]pyridin-2-amine]: the pIC50 is 6.92 on DLK and 7.01 on LZK.
The like results for `CC(C)C(c1ccc(C(F)(F)F)nc1)n1cc(-c2cc(-c3ccnc(C(F)(F)F)c3)n3nc(N)nc3c2)cn1` (single isomer, unassigned) [II-30, 7-(1-{2-Methyl-1-[6-(trifluoromethyl)pyridin-3-yl]propyl}-1H-pyrazol-4-yl)-5-[2-(trifluoromethyl)pyridin-4-yl][1,2,4]triazolo[1,5-a]pyridin-2-amine] were, in that order, 8.06 and 8.17.
As to `CCC(c1ccc(C(F)(F)F)nc1)n1cc(-c2cc(-c3ccnc(C4(F)CC4)c3)n3nc(N)nc3c2)cn1` (single isomer, unassigned) [II-32, 5-[2-(1-Fluorocyclopropyl)pyridin-4-yl]-7-(1-{1-[6-(trifluoromethyl)pyridin-3-yl]propyl}-1H-pyrazol-4-yl)[1,2,4]triazolo[1,5-a]pyridin-2-amine], the pIC50 against DLK was 7.18; at LZK, 7.80.
